This is an account of results in ChEMBL document CHEMBL1255481, “The M230L nonnucleoside reverse transcriptase inhibitor resistance mutation in HIV-1 reverse transcriptase impairs enzymatic function and viral replicative capacity” (Antimicrob Agents Chemother, 2010).

In experiment [1] the target is T1, Human immunodeficiency virus type 1 reverse transcriptase (Human immunodeficiency virus 1, UniProt Q72547). Nature of the experiment: Inhibition of RNA-dependent DNA polymerase activity of wild type HIV1 subtype B reverse transcriptase by filter-based filtration assay.
The target in experiment [2] is T2, Human immunodeficiency virus type 1 reverse transcriptase (Human immunodeficiency virus 1, UniProt Q72547, M230L). Nature of the experiment: Inhibition of RNA-dependent DNA polymerase activity of HIV1 subtype B reverse transcriptase M230L mutant by filter-based filtration assay.
In experiment [3] the test system is Human immunodeficiency virus 1. Nature of the experiment: Selectivity ratio of IC50 for RNA-dependent DNA polymerase activity of HIV1 subtype B reverse transcriptase M230L mutant to IC50 for RNA-dependent DNA polymerase activity of wild type HIV1 subtype B reverse transcriptase.
The target in experiment [4] is T1, Human immunodeficiency virus type 1 reverse transcriptase. Nature of the experiment: Inhibition of DNA-dependent DNA polymerase activity of wild type HIV1 subtype B reverse transcriptase by gel-based primer extension assay.
Experiment [5] concerns the target T2, Human immunodeficiency virus type 1 reverse transcriptase. As to the kind of experiment: Inhibition of DNA-dependent DNA polymerase activity of HIV1 subtype B reverse transcriptase M230L mutant by gel-based primer extension assay.
Experiment [6] has as its system Human immunodeficiency virus 1. Nature of the experiment: Selectivity ratio of IC50 for DNA-dependent DNA polymerase activity of HIV1 subtype B reverse transcriptase M230L mutant to IC50 for DNA-dependent DNA polymerase activity of wild type HIV1 subtype B reverse transcriptase.
Experiment [7] has as its system Human immunodeficiency virus 1. As to the kind of experiment: Antiviral activity against HIV 1 subtype B harboring wild type reverse transcriptase infected in human TZM-bl cells assessed as inhibition of viral growth by luciferase reporter gene assay. It counts as functional, organism-based. As to conditions: Human immunodeficiency virus 1, subtype B.
Experiment [8] relates to Human immunodeficiency virus 1. Nature of the experiment: Antiviral activity against HIV 1 subtype B harboring reverse transcriptase M230L mutant infected in human TZM-bl cells assessed as inhibition of viral growth by luciferase reporter gene assay. The class given is functional, organism-based. As to conditions: Human immunodeficiency virus 1, subtype B. In general terms: In a reporter assay the amount or activity of a reporter protein is the signal.

The subject of experiment [9] is Human immunodeficiency virus 1. As to the kind of experiment: Selectivity ratio of EC50 for antiviral activity against HIV 1 subtype B harboring reverse transcriptase M230L mutant to EC50 for antiviral activity against HIV 1 subtype B harboring wild type reverse transcriptase. It counts as functional.

Molecules are shown by their SMILES.

The term IC50 denotes the point on the concentration scale where inhibition reaches its midpoint. A low value points to greater potency. A word on the EC50: it is the concentration at which the effect is half-maximal. With `Cc1cc(C)c(Nc2ccnc(Nc3ccc(C#N)cc3)n2)c(C)c1` [DAPIVIRINE], the IC50 in [1] is 19 nM; in [2] it was 172 nM; in experiment [4], 131 nM; in experiment [5] it was 1290 nM. Besides, the Selectivity ratio in [3] was 9.1; in experiment [6], 9.9; in [9], 6.4. Further, the EC50 in experiment [7] is 0.91 nM; in experiment [8], 5.8 nM.

On to `O=C1Nc2ccc(Cl)cc2[C@@](C#CC2CC2)(C(F)(F)F)O1` [EFAVIRENZ], for which the values for the EC50 in experiment [7] and in experiment [8] were 3.57 nM and 64.3 nM, respectively.

Take `Cc1cc(C#N)cc(C)c1Oc1nc(Nc2ccc(C#N)cc2)nc(N)c1Br` [ETRAVIRINE]: the EC50 was 1.25 nM in experiment [7] and 7.27 nM in experiment [8].

As for `Cc1ccnc2c1NC(=O)c1cccnc1N2C1CC1` [NEVIRAPINE], the half-maximal effective concentration (EC50) stood at 163 nM in experiment [7] and 2690 nM in [8].
